Laboratory results reported in US20250313563A1, “GLYCOGEN SYNTHASE KINASE 3 INHIBITORS AND USES THEREOF” (The Broad Institute, Inc., priority 2022, published 2025).
Where two headings read alike, the source gives them in different places.

Tests used:
[1] = target: GSK3α (GST-full length GSK3α) (Homo sapiens (Human), UniProt P49840); assay: GSK3α TR-FRET kinase assay; format: biochemical
Method in brief: (§1)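 Compound was preincubated 30 min with 1 nM GST-GSK3 enzyme. Reaction ran 100 min at ambient temperature in Tris pH 7.5/MgCl2 with 200 nM biotinylated pS645-glycogen synthase 631-650 peptide and ATP (4 μM GSK3α, 2 μM GSK3b, or 1 mM). The EDTA-stopped reaction was read by TR-FRET (Tb-anti-pSer641/streptavidin-d2), and IC50s were fitted.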

[2] = target: GSK3b (GST-full length GSK3b) (Homo sapiens (Human), UniProt P49841); assay: GSK3b TR-FRET kinase assay; format: biochemical
Sequence of GSK3b (GST-full length GSK3b) (P49841 whole entry): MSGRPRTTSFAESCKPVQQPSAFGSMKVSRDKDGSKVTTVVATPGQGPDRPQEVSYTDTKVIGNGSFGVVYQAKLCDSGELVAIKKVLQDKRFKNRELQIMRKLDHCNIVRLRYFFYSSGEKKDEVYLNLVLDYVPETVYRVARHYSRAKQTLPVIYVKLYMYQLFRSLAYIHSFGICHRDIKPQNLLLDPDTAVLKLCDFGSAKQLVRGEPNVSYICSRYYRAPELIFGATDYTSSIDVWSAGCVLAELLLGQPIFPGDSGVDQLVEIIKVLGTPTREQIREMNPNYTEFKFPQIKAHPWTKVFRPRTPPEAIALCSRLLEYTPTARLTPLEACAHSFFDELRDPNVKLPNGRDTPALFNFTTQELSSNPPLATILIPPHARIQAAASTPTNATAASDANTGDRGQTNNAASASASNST
Method in brief: as §1

[3] = 1 nM GSK3α, 4 μM ATP, 30 minute preincubation, Table 16, read-out: GSK3-A TR-FRET BIOCHEMICAL (TR-FRET), IC50
[4] = 1 nM GSK3b, 2 μM ATP, 30 minute preincubation, Table 16, read-out: GSK3-B TR-FRET BIOCHEMICAL (TR-FRET), IC50
[5] = read-out: GSK3-A (TR-FRET 1 mM ATP), GMean, IC50, 1 mM ATP, geometric mean
[6] = read-out: GSK3-B (TR-FRET 1 mM ATP), GMean, IC50, 1 mM ATP, geometric mean
[7] = 1 nM GSK3α, 4 μM ATP, 30 minute preincubation, Table 16, read-out: GSK3-A TR-FRET BIOCHEMICAL (TR-FRET)
[8] = 1 nM GSK3b, 2 μM ATP, 30 minute preincubation, Table 16, read-out: GSK3-B TR-FRET BIOCHEMICAL (TR-FRET)

Sequence of GSK3α (GST-full length GSK3α) (P49840 whole entry): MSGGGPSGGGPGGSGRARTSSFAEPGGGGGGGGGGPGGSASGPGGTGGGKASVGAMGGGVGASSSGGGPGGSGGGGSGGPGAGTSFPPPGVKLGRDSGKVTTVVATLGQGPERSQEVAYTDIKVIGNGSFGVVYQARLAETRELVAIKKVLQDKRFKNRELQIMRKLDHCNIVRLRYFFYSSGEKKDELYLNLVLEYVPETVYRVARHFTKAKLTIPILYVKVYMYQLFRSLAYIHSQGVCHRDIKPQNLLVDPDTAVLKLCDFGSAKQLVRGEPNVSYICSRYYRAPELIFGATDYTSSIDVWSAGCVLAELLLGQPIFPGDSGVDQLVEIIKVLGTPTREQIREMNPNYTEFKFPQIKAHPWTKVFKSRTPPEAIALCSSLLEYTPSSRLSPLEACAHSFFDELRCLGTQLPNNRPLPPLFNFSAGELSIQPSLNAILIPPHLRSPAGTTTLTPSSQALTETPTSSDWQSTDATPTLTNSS

| Structure (SMILES) | IC50 [1, 3] [µM] | IC50 [2, 4] [µM] | also measured |
| --- | --- | --- | --- |
| CC[C@@]1(c2cccc(-c3c(C)ccc4c(C)cccc34)c2)C2=C(CC(C)(C)NC2=O)Nc2n[nH]c(F)c21 [Compound 949392] | 1 to 5 | > 5 |  |
| CCC1(c2cccc(-c3cnn(C4CC4(F)F)c3)c2)C2=C(CC(C)(C)NC2=O)Nc2n[nH]cc21 (stereo not shown) [Compound 949393] | 1 to 5 | > 5 |  |
| CCC1(c2cccc(-c3cnn(C)c3F)c2)C2=C(CC(C)(C)NC2=O)Nc2n[nH]cc21 (stereo not shown) [Compound 949395] | 1 to 5 | > 5 |  |
| CC[C@@]1(c2cccc(-c3ccnn3-c3ccc(F)cc3)c2)C2=C(CC(C)(C)NC2=O)Nc2n[nH]cc21 [Compound 949396] | > 5 | > 5 |  |
| CCC1(c2cccc(C3CCCC3)c2)C2=C(CC(C)(C)CC2=O)Nc2n[nH]cc21 (stereo not shown) [Compound 949397] |  |  | IC50 [1, 5]: 0.1 to 1 µM; IC50 [2, 6]: 1 to 5 µM |
| CC[C@]1(c2cccc(C3CCCC3)c2)C2=C(CC(C)(C)CC2=O)Nc2n[nH]cc21 [Compound 949399] | 1 to 5 | > 5 |  |
| CC[C@@]1(c2cccc(-c3ccnn3C)c2)C2=C(CC3(CCS(=O)(=O)CC3)NC2=O)Nc2n[nH]cc21 [Compound 949400] | 1 to 5 | > 5 |  |
| CC[C@@]1(c2cccc(-c3cc(C4CCCC4)nn3C)c2)C2=C(CC(C)(C)NC2=O)Nc2n[nH]cc21 [Compound 949509] | > 5 | > 5 |  |
| CC[C@@]1(c2cccc(-c3cnn(CCN4CCCC4)c3)c2)C2=C(CC(C)(C)NC2=O)Nc2n[nH]cc21 [Compound 949510] | > 5 | > 5 |  |
| CC[C@@]1(c2cccc(-c3cnn(Cc4ccc(C(F)(F)F)cc4)c3)c2)C2=C(CC(C)(C)NC2=O)Nc2n[nH]cc21 [Compound 949511] | > 5 | > 5 |  |
| CC[C@@]1(c2cccc(-c3cnn(Cc4cccc(C(F)(F)F)c4)c3)c2)C2=C(CC(C)(C)NC2=O)Nc2n[nH]cc21 [Compound 949513] | > 5 | > 5 |  |
| CCC1(c2cccc(C3CCC3)c2)C2=C(CC(C)(C)CC2=O)Nc2n[nH]cc21 (stereo not shown) [Compound 949514] | 1 to 5 | > 5 |  |
| CC[C@@]1(c2cccc(-c3cnn(-c4cccnc4)c3)c2)C2=C(CC(C)(C)NC2=O)Nc2n[nH]cc21 [Compound 949515] | > 5 | > 5 |  |
| CC[C@@]1(c2cccc(-c3ccncc3C(F)(F)F)c2)C2=C(CC(C)(C)NC2=O)Nc2n[nH]cc21 [Compound 949516] | 1 to 5 | > 5 |  |
| CC[C@@]1(c2cccc(-c3cnn(-c4ccccc4)c3F)c2)C2=C(CC(C)(C)NC2=O)Nc2n[nH]cc21 [Compound 949519] | > 5 | > 5 |  |
| CC[C@]1(c2cccc(C(F)(F)F)c2)C2=C(CCN(CCOC)C2=O)Nc2n[nH]cc21 [Compound 949600] | > 5 | > 5 |  |
| CC1CCC12C1=C(CC(C)(C)CC1=O)Nc1n[nH]cc12 (stereo not shown) [Compound 949640] |  |  | IC50 [1, 7]: 0.1 to 1 µM; IC50 [2, 8]: 1 to 5 µM |
| CCC1(c2cccc(C(F)(F)F)c2)C2=C(CCN(c3cn(C)nc3C)C2=O)Nc2n[nH]cc21 (stereo not shown) [Compound 949641] | > 5 | > 5 |  |
| CC[C@]1(c2cccc(-c3ccncc3F)c2)C2=C(CC(C)(C)NC2=O)Nc2n[nH]c(F)c21 [Compound 949643] | > 5 | > 5 |  |
| CC[C@@]1(c2cccc(C(C)C)c2)C2=C(CC(C)(C)NC2=O)Nc2n[nH]c(C)c21 [Compound 949646] | > 5 | > 5 |  |
| CC[C@]1(c2cccc(C(C)C)c2)C2=C(CC(C)(C)NC2=O)Nc2n[nH]cc21 [Compound 949752] | > 5 | > 5 |  |
| CC[C@]1(c2ccccc2)C2=C(C[C@@]3(CCN(C)C3=O)CC2=O)Nc2n[nH]cc21 [Compound 949753] |  |  | IC50 [1, 7]: 1 to 5 µM; IC50 [2, 8]: > 5 µM |
| CC[C@]1(c2ccccc2)C2=C(C[C@]3(CCN(C)C3=O)CC2=O)Nc2n[nH]cc21 [Compound 949754] |  |  | IC50 [1, 7]: > 5 µM; IC50 [2, 8]: > 5 µM |
| CC[C@]1(c2cccc(-c3ccncc3F)c2)C2=C(CC(C)(C)NC2=O)Nc2n[nH]c(Cl)c21 [Compound 949756] | > 5 | > 5 |  |
| CC[C@@]1(c2ccccc2)C2=C(C[C@]3(CCN(C)C3=O)CC2=O)Nc2n[nH]cc21 [Compound 949759] |  |  | IC50 [1, 7]: > 5 µM; IC50 [2, 8]: > 5 µM |
| CC[C@@]1(c2ccccc2)C2=C(C[C@@]3(CCN(C)C3=O)CC2=O)Nc2n[nH]cc21 [Compound 949760] |  |  | IC50 [1, 7]: 0.1 to 1 µM; IC50 [2, 8]: > 5 µM |
| CCC1(c2cccc(Br)c2)C2=C(CC(C)(C)C2=O)Nc2n[nH]cc21 (stereo not shown) [Compound 949805] | 0.1 to 1 | 1 to 5 |  |
| CC[C@]1(c2cccc(C(F)(F)F)c2)C2=C(CCN(c3ccn(C)n3)C2=O)Nc2n[nH]cc21 [Compound 949836] | 1 to 5 | > 5 |  |
| CCC1(c2cccc(-c3ccnc(C)c3)c2)C2=C(CC(C)(C)C2=O)Nc2n[nH]cc21 (stereo not shown) [Compound 949840] | 0.1 to 1 | 1 to 5 |  |

More lines, main results first:

| IC50 [1, 3] [µM] | IC50 [2, 4] [µM] | Structure (SMILES) | also measured |
| --- | --- | --- | --- |
| ≤ 0.1 | 0.1 to 1 | CC[C@]1(c2cccc(-c3ccnn3C)c2)C2=C(CC3(CCS(=O)(=O)CC3)NC2=O)Nc2n[nH]cc21 [Compound 949394] |  |
| ≤ 0.1 | 0.1 to 1 | CCC1(c2cccc(-c3c(C)cnc4ccccc34)c2)C2=C(CC(C)(C)NC2=O)Nc2n[nH]cc21 (stereo not shown) [Compound 949398] |  |
| 0.1 to 1 | > 5 | CC[C@]1(c2cccc(-c3ccnc(C)c3)c2)C2=C(CC(C)(C)NC2=O)Nc2n[nH]c(Cl)c21 [Compound 949421] |  |
| ≤ 0.1 | ≤ 0.1 | CC[C@@]1(c2cccc(-c3ccnc(C)c3)c2)C2=C(CC(C)(C)NC2=O)Nc2n[nH]c(Cl)c21 [Compound 949422] | IC50 [1, 5]: 0.1 to 1 µM; IC50 [2, 6]: 1 to 5 µM |
| 0.1 to 1 | > 5 | CC[C@@]1(c2cccc(-c3ccnn3C3CC3(F)F)c2)C2=C(CC(C)(C)NC2=O)Nc2n[nH]cc21 (stereo partly shown) [Compound 949518] |  |
| ≤ 0.1 | 0.1 to 1 | CC[C@]1(c2cccc(-c3ccnc(C)c3)c2)C2=C(CC3(CCC3)NC2=O)Nc2n[nH]cc21 [Compound 949520] |  |
| ≤ 0.1 | ≤ 0.1 | CC[C@@]1(c2cccc(C3CCC3)c2)C2=C(CC(C)(C)CC2=O)Nc2n[nH]cc21 [Compound 949521] | IC50 [1, 5]: 0.1 to 1 µM; IC50 [2, 6]: 1 to 5 µM |
| 0.1 to 1 | 0.1 to 1 | CC[C@@]1(c2cccc(C(F)(F)F)c2)C2=C(CCN(CCOC)C2=O)Nc2n[nH]cc21 [Compound 949599] |  |
| 0.1 to 1 | 0.1 to 1 | CCC1(c2cccc(C(F)(F)F)c2)C2=C(CCC2=O)Nc2n[nH]cc21 (stereo not shown) [Compound 949639] |  |
| 0.1 to 1 | 1 to 5 | CC[C@]1(c2cccc(-c3cc(C)ncc3F)c2)C2=C(CC(C)(C)NC2=O)Nc2n[nH]c(C(F)(F)F)c21 [Compound 949644] |  |
| ≤ 0.1 | ≤ 0.1 | CC[C@@]1(c2cccc(N(C)c3ncccn3)c2)C2=C(CC(C)(C)NC2=O)Nc2n[nH]c(F)c21 [Compound 949648] | IC50 [1, 5]: ≤ 0.1 µM; IC50 [2, 6]: 1 to 5 µM |
| ≤ 0.1 | ≤ 0.1 | CC[C@]1(c2cccc(C(C)C)c2)C2=C(CC(C)(C)NC2=O)Nc2n[nH]c(C)c21 [Compound 949649] | IC50 [1, 5]: 0.1 to 1 µM; IC50 [2, 6]: 1 to 5 µM |
| ≤ 0.1 | ≤ 0.1 | CC[C@@]1(c2cccc(-c3cc(C)ncc3F)c2)C2=C(CC(C)(C)NC2=O)Nc2n[nH]c(C(F)(F)F)c21 [Compound 949650] | IC50 [1, 5]: 0.1 to 1 µM; IC50 [2, 6]: 1 to 5 µM |
| ≤ 0.1 | ≤ 0.1 | CCC1(c2cccc(-c3ccncc3F)c2)C2=C(CC(C)(C)NC2=O)Nc2n[nH]c(F)c21 (stereo not shown) [Compound 949651] | IC50 [1, 5]: 0.1 to 1 µM; IC50 [2, 6]: > 5 µM |
| 0.1 to 1 | 0.1 to 1 | CC[C@@]1(c2cccc(C(F)(F)F)c2)C2=C(Nc3n[nH]cc31)c1ccccc1C2=O [Compound 949742] |  |
| ≤ 0.1 | ≤ 0.1 | CC[C@]1(c2cccc(C(F)(F)F)c2)C2=C(Nc3n[nH]cc31)c1ccccc1C2=O [Compound 949743] | IC50 ([1]; GSK3-A (TR-FRET 1 mM ATP), GMean, IC50, 1 mM ATP, geometric mean): ≤ 0.1 µM; IC50 ([2]; GSK3-B (TR-FRET 1 mM ATP), GMean, IC50, 1 mM ATP, geometric mean): 0.1 to 1 µM |
| ≤ 0.1 | ≤ 0.1 | CCC1(c2cccc(C(C)C)c2)C2=C(CC(C)(C)NC2=O)Nc2n[nH]c(C(F)(F)F)c21 (stereo not shown) [Compound 949747] |  |
| ≤ 0.1 | 0.1 to 1 | CCC1(c2cccc(OC)c2)C2=C(CC(C)(C)NC2=O)Nc2n[nH]c(C(F)(F)F)c21 (stereo not shown) [Compound 949748] |  |
| ≤ 0.1 | ≤ 0.1 | CC[C@@]1(c2cccc(-c3ccncc3F)c2)C2=C(CC(C)(C)NC2=O)Nc2n[nH]c(Cl)c21 [Compound 949757] | IC50 [1, 5]: 0.1 to 1 µM; IC50 [2, 6]: 1 to 5 µM |
| ≤ 0.1 | 0.1 to 1 | CCC1(c2cccc(C(C)C)c2)C2=C(CC(C)(C)NC2=O)Nc2n[nH]cc21 (stereo not shown) [Compound 949761] | IC50 [1, 5]: 0.1 to 1 µM; IC50 [2, 6]: > 5 µM |
| ≤ 0.1 | 0.1 to 1 | CCC1(c2cccc(C(F)(F)F)c2)C2=C(CCN(c3ccn(C)n3)C2=O)Nc2n[nH]cc21 (stereo not shown) [Compound 949835] |  |
